Data as given in paper PMC8175350, “Drug repurposing screens identify chemical entities for the development of COVID-19 interventions” (Nature Communications, 2021).
Like-named read-outs stand apart in the source and are kept apart here.

What was measured:
SARS-CoV-2 [1] = assay: microbe, parasite or virus in culture; assay type: cell-based; settings: for Emax: Severe acute respiratory syndrome coronavirus 2, HeLa-ACE2, 24 h, read-out: HeLa-ACE2 CoV-2 Sinf Average; for EC50: Severe acute respiratory syndrome coronavirus 2, HeLa-ACE2, detail column, read-out: HeLa-ACE2 CoV-2 EC50 GeoMean
[2] = Uninfected HeLa-ACE2 24 h live/dead cytotoxicity counter screen; assay type: cell-based, human; settings: human, uninfected HeLa-ACE2 cells; read-out: HeLa-ACE2 uninfected cytotoxicity CC50 GeoMean
SARS-CoV-2 [3] = assay: microbe, parasite or virus in culture; assay type: cell-based; settings: for EC50: read-out: Calu-3 CoV-2 EC50 GeoMean
SARS-CoV-2 [4] = assay: microbe, parasite or virus in culture; assay type: cell-based; settings: for EC50: read-out: HeLa-ACE2 TOA CoV-2 EC50 GeoMean
HeLa-ACE2 cells [5] = assay: Total cell count in the HeLa-ACE2 TOA (time of addition) assay; assay type: cell-based, human; settings: Homo sapiens, HeLa-ACE2; read-out: HeLa-ACE2 TOA cell count EC50 GeoMean
HeLa-ACE2 cells [6] = assay: cells; settings: Homo sapiens; for EC50: HeLa-ACE2, read-out: HeLa-ACE2 cell count EC50 GeoMean
Calu-3 cells [7] = assay: cells; settings: Homo sapiens, Calu-3, read-out: Calu-3 cell count EC50 GeoMean
in vitro [8] = settings: human
HepG2 [9] = assay: HepG2 72 h CellTiter-Glo cytotoxicity; settings: 72 h
[10] = HEK293T 72 h CellTiter-Glo cytotoxicity; settings: human, HEK293T cells
HeLa-ACE2 cells [11] = assay: Uninfected HeLa-ACE2 24 h live/dead cytotoxicity counter screen; assay type: cell-based, human; settings: curve plateau at infinite concentration
SARS-CoV-2 [12] = assay type: cell-based; settings: combination with remdesivir, synergy score δ
HeLa-ACE2 cells [13] = assay: Total cell count in the HeLa-ACE2 TOA assay; assay type: cell-based; settings: Homo sapiens, HeLa-ACE2; read-out: HeLa-ACE2 TOA cell count EC50 GeoMean
Excerpt: Supplement 41467_2021_23328_MOESM3_ESM.xlsx, sheet "Table S1" | column: HeLa-ACE2 TOA cell count

Calu-3 cells [14] = test system: Calu-3 cells
HepG2 [15] = settings: human, 72 h
HEK293T = settings: human, 72 h
in vitro [16] = settings: human, Calu-3 uninfected cytotoxicity CC50 GeoMean
in vitro [17] = settings: human; remark: listed apart in the source

## CC[C@H]1OC(=O)[C@H](C)[C@@H](O[C@H]2C[C@@](C)(OC)[C@@H](O)[C@H](C)O2)[C@H](C)[C@@H](O[C@@H]2O[C@H](C)C[C@H](N(C)C)[C@H]2O)[C@](C)(O)C[C@@H](C)CN(C)[C@H](C)[C@@H](O)[C@]1(C)O [Azithromycin]
SARS-CoV-2 [1]
  Emax: 100%
  EC50: 0.65 µM
SARS-CoV-2 [1]; selectivity index, uninfected HeLa-ACE2 CC50 / SARS-CoV-2 EC50
  HeLa-ACE2 SI: > 61.26
[2]
  CC50 at 24 h: > 39.8 µM
SARS-CoV-2 [3]; Severe acute respiratory syndrome coronavirus 2, Calu-3
  EC50: > 9.85 µM
SARS-CoV-2 [4]
  TOA:HeLa-ACE2 EC50 Ratio: 14.747
SARS-CoV-2 [4]; Severe acute respiratory syndrome coronavirus 2, HeLa-ACE2, detail column
  EC50: > 9.59 µM
HeLa-ACE2 cells [5]
  EC50: > 9.59 µM
HeLa-ACE2 cells [6]
  EC50: > 9.59 µM
Calu-3 cells [7]
  EC50: > 9.85 µM
In vitro [8]
  CC50: > 39.8 µM
HepG2 [9]
  HepG2 72-hour cytotoxicity Sinf Average: -100%
[10]
  CC50 at 72 h: > 39.8 µM

## COC(=O)C1=C(C)NC(C)=C(C(=O)OCCN2CCN(C(c3ccccc3)c3ccccc3)CC2)C1c1cccc([N+](=O)[O-])c1 (stereo not drawn) [Manidipine (Manyper)]
SARS-CoV-2 [1]; curve plateau at infinite concentration
  Emax: 100%
SARS-CoV-2 [1]
  EC50: > 6.89 µM
[2]
  CC50 at 24 h: > 17.1 µM
HeLa-ACE2 cells [11]
  HeLa-ACE2 uninfected cytotoxicity Sinf Average: -96%
SARS-CoV-2 [3]; Severe acute respiratory syndrome coronavirus 2, Calu-3, 48 h, curve plateau at infinite concentration, read-out: Calu-3 CoV-2 Sinf Average
  Emax: 80%
SARS-CoV-2 [3]; Severe acute respiratory syndrome coronavirus 2, Calu-3, detail column
  EC50: > 5.48 µM
SARS-CoV-2 [4]; Severe acute respiratory syndrome coronavirus 2, HeLa-ACE2, 10 h, curve plateau at infinite concentration, read-out: HeLa-ACE2 TOA CoV-2 Sinf Average
  Emax: 100%
SARS-CoV-2 [4]; Severe acute respiratory syndrome coronavirus 2, HeLa-ACE2
  EC50: 7.72 µM
SARS-CoV-2 [12]
  HeLa-ACE2 synergy score with remdesivi [δ]: -4.727
HeLa-ACE2 cells [13]
  EC50: > 9.61 µM
Calu-3 cells [14]
  uninfected Calu-3 CC50: > 29.89 ×÷ 1.002 (n=5) μM
Calu-3 cells [14]; human, 48 h
  Calu-3 uninfected cytotoxicity Sinf Average: -100%
HepG2 [15]
  HepG2 72-hour cytotoxicity Sinf Average: -100%
HEK293T
  HEK293T 72-hour cytotoxicty Sinf Average: -100%
HeLa-ACE2 cells [6]; HeLa-ACE2, 24 h, read-out: HeLa-ACE2 cell count Sinf Average
  Emax: 100%
HeLa-ACE2 cells [6]
  EC50: > 9.6 µM
Calu-3 cells [7]
  EC50: > 9.98 µM
In vitro [16]
  CC50 at 48 h: > 29.9 µM
In vitro [8]
  CC50 at 72 h: 30.7 µM
In vitro [17]
  CC50 at 72 h: 30.8 µM
